Reference: PubChem BioAssay AID179 (DTP/NCI, 2004)
The source made the active and inactive calls.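 The calls were made as follows: active = compounds giving half or more protection of infected cells from virus-caused growth loss, again on retest; inactive = the rest.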

System: CEM cells HIV-1 protection, formazan growth assay
Assay: NCI AIDS Antiviral Assay
Settings: for IC50: measured here: growth of uninfected CEM cells
Summary of the method: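 Human CEM cells, uninfected and HIV-1-infected, received five drug concentrations, and growth was read by soluble formazan assay. Compounds giving at least 50% protection were retested; reproducible 100% protection defined confirmed active.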

SMILES	EC50	IC50	outcome
CN(C)CC1CC(=O)C(CN(C)C)CC1=O (centres undefined)	> 832 µM	2.51 µM	–
CCCc1cc(=O)oc2c3c(c4c(c12)OC(C)(C)C=C4)O[C@@H](C)[C@H](C)[C@H]3O	> 51.3 µM	17 µM	–
CCC12C=CCN3CCC4(C(=C(C(=O)OC)C1)Nc1ccccc14)[C@H]32 (some centres undefined)	> 120 µM	5.25 µM	–
S=c1[nH]nc(Cn2c3ccc(Br)cc3c3nc4ccccc4nc32)o1	> 200 µM	49 µM	–
CCCCCn1cnc2c(=S)nc(N)[nH]c21	> 200 µM	195 µM	–
Cc1cc2c(cc1-c1cc3c(cc1C)C(C(C)C)=C(O)C(=O)/C3=C\Nc1nc(-c3ccccc3)cs1)/C(=C/Nc1nc(-c3ccccc3)cs1)C(=O)C(O)=C2C(C)C	> 100 µM	13.2 µM	–
O=C(O)c1cc2c(cn1)[nH]c1ccccc12	–	–	inactive
CCC(C)N1CN(c2ccccc2)C2(CCN(CCCSc3ccc(F)cc3)CC2)C1=O (centres undefined)	> 200 µM	4.17 µM	–
CC12CCC(CC1=O)C2(C)CCC(N)=O (centres undefined)	> 200 µM	> 200 µM	–
OCc1cn(C(c2ccccc2)(c2ccccc2)c2ccccc2)cn1	195 µM	> 200 µM	–
Cc1cn(C2CC(O)C(CO)C2C)c(=O)[nH]c1=O (centres undefined)	> 200 µM	> 200 µM	–
O=c1oc2ccccc2c(O)c1C(c1ccco1)c1c(O)c2ccccc2oc1=O	> 200 µM	33.9 µM	–
O=C(c1ccccc1)c1ccc2cccc(OC3OC(CO)C(O)C(O)C3O)c2n1 (centres undefined)	> 603 µM	316 µM	–
COc1ccc(C2C3C(=O)C=CC(=O)C3[C@@H]2C)cc1OC (some centres undefined)	> 174 µM	13.2 µM	–
CCC1c2c(cc(=O)[nH]c2O)C(=O)N1C (centres undefined)	> 447 µM	> 447 µM	–
CC1(CCC(=O)c2ccc3c(c2)OCO3)OCCO1	> 97.7 µM	> 97.7 µM	–
O=c1[nH]c2ccc([N+](=O)[O-])cc2nc1/C=C(\O)c1ccccc1	> 200 µM	> 200 µM	–
O=C1OCC(Cc2ccc3c(c2)OCO3)[C@H]1Cc1ccccc1 (some centres undefined)	> 200 µM	186 µM	–
CC(C)(C)n1c(=O)[nH]c(=O)n1C(C)(C)C	> 200 µM	> 200 µM	–
CC(=O)Nc1ccc2oc3ccc(Cl)cc3c(=O)c2c1	> 174 µM	77.6 µM	–
C=CCOC(=O)N(C)CC(OC(=O)C(C)(C)C)C1(c2ccc3c(c2)OCO3)C=CC(=O)C=C1 (centres undefined)	–	–	inactive
CCOC(=O)c1c(-c2ccccc2)csc1N	> 123 µM	107 µM	–

SMILES	EC50	IC50	outcome
O=c1ccnc2c1ccc1[nH]cccc12	> 1260 µM	64.6 µM	–
CC(=O)CC1=C(OC(C)C)C2(OCCO2)C1O (centres undefined)	> 200 µM	> 200 µM	–
ClCCCCCc1c2nc(c(CCCCCCl)c3ccc([nH]3)c(CCCCCCl)c3ccc([nH]3)c(CCCCCCl)c3nc1C=C3)C=C2	> 200 µM	> 200 µM	–
Cc1ccc2c(n1)C(N1CCOCC1)=CC(=O)C2=O	–	–	inactive
CCCC(=O)CC(C)C(=O)C(=O)NC12CC3CC(CC(C3)C1)C2 (centres undefined)	> 295 µM	> 295 µM	–
C[n+]1c2ccccc2n2c3ccccc3c(NCCCn3ccnc3)c(C#N)c21	> 20 µM	1.1 µM	–
O=C(Nc1c[nH]c(=O)[nH]c1=O)c1ccc(S(=O)(=O)F)cc1	> 151 µM	85.1 µM	–
COc1ccc(CCN2CCc3c(C)c(C#N)c4nc5ccccc5n4c32)cc1OC	> 200 µM	53.7 µM	–
O=C(O)Cn1c(=O)ccc2ccccc21	> 200 µM	> 200 µM	–
CS(=O)(=O)OCCN(CCOS(C)(=O)=O)c1ccc(C=Nc2ccc(-c3csc(COc4ccccc4)n3)cc2)cc1	> 200 µM	0.457 µM	–
NC1=NCC(CN2CCCC2)O1 (centres undefined)	> 200 µM	> 200 µM	–
CN(C)Cc1c[nH]c2nc[nH]c(=O)c12	> 200 µM	25.7 µM	–
Oc1cc(OCCCc2ccc(F)cc2)cc2ccc3ccccc3c12	> 55 µM	31.6 µM	–
O=C(/C=C/c1ccc2c(c1)OCO2)NCc1ccco1	> 200 µM	117 µM	–
CC(C)CCC[C@@H](C)C1CCC2[C@@H]3CC=C4C[C@@H](OP(=O)(O)OP(=O)(O)O)CC[C@]4(C)C3CC[C@@]21C (some centres undefined)	> 6.17 µM	> 6.17 µM	–
COc1ccc(CC2C(=O)NC(=O)NC2=O)cc1OCc1ccccc1	–	–	inactive
Clc1ccc(C2=C(c3ccccc3)C(c3ccc(Cl)cc3)N3C(=N[C@H]4CCCC[C@@H]43)N2)cc1 (some centres undefined)	> 200 µM	20.9 µM	–
COc1cc2c(c(OC)c1OC)CCC1(C)C(=O)NN=C21 (centres undefined)	> 871 µM	275 µM	–
CC1=C(C(=O)NNC(=O)C(N)=O)CC(C(=O)NNC(=O)C(N)=O)=C(C)N1	> 200 µM	> 200 µM	–
COc1cc(C2=NC(C(C)C)CO2)c(OC)c(OC)c1OC (centres undefined)	> 43.7 µM	> 43.7 µM	–
COP(=O)(OC)/C(C#N)=C/c1ccco1	> 1100 µM	832 µM	–
COc1ccc2nc(NC(=O)C(=O)CC(=O)c3ccc([N+](=O)[O-])cc3)sc2c1	–	–	inactive

SMILES	EC50	IC50	outcome
C=C1C=CC2(Br)OC3CC(C)(Cl)C(Br)CC13C2(C)C (centres undefined)	–	–	inactive
Cc1cn(C2CC(Br)C(COC(c3ccccc3)(c3ccccc3)c3ccccc3)O2)c(=O)[nH]c1=O (centres undefined)	> 200 µM	13.8 µM	–
Nc1ccc(C2=Nc3ccccc3SC(c3ccccc3O)C2)cc1 (centres undefined)	> 11 µM	> 11 µM	–
CCOC(=O)/C(Cc1cc[n+]([O-])cc1)=N/O	–	–	inactive
CC1(Cl)CC2OC3(Br)C=CC(C)(O)C2(CC1Br)C3(C)C (centres undefined)	> 102 µM	> 102 µM	–
O=C(O)c1ccc(CS(=O)(=O)c2ccc(Cl)cc2)cc1	> 794 µM	> 794 µM	–
CC(=O)NC(Cc1cnc[nH]1)C(=O)N1CCCC1C(N)=O (centres undefined)	> 200 µM	> 200 µM	–
COc1ccc(N2C(=O)C3c4[nH]c5ccccc5c4C4CC(C)CC(C)C4C3C2=O)cc1 (centres undefined)	> 2.45 µM	> 2.45 µM	–
CC(C)(C)CC(C)(C)SSc1n[nH]c(=S)s1	> 200 µM	17.4 µM	–
COC(=O)N(CCc1ccccc1)C(C)(C)C#N	> 29.5 µM	> 29.5 µM	–
O=S(=O)(c1ccccc1)C1CC(c2nc3ccccc3[nH]2)=NO1 (centres undefined)	> 200 µM	132 µM	–
CCC(C)C(NC(=O)C(CCCCN)NC(=O)CNC(=O)C(NC(=O)C(NC(=O)C(NC(=O)C(Cc1ccccc1)NC(=O)C(C)NC(=O)C(CCCNC(=N)N)NC(=O)CNC(=O)C1CCCN1C(=O)CNC(=O)C(CCCNC(=N)N)NC(=O)C(CCC(N)=O)NC(=O)C(NC(=O)C(CCCNC(=N)N)NC(=O)C(NC(=O)C(COC1OC(CO)C(O)C(O)C1NC(C)=O)NC(=O)C(CCCCN)NC(=O)C(CCCNC(=N)N)NC(=O)C(NC(=O)C(CC(N)=O)NC(=O)C(N)CC(N)=O)C(C)O)C(C)CC)C(C)CC)C(C)C)C(C)OC1OC(CO)C(O)C(O)C1NC(C)=O)C(C)CC)C(=O)NCOC#N (centres undefined)	> 27.5 µM	> 27.5 µM	–
CC(=O)Nc1sccc1S(=O)(=O)c1ccc(Cl)cc1	> 200 µM	> 200 µM	–
C=C(CC)C(=O)c1ccc(OCC(=O)O)c(Cl)c1Cl	> 200 µM	43.7 µM	inactive
CC1=Nc2ccccc2S/C1=C(/C)NNC(=O)C(N)=O	> 89.1 µM	> 89.1 µM	–
Cc1ccc(-c2cc(=O)c3cc(C)c(C)c(C(=O)O)c3o2)cc1[N+](=O)[O-]	–	–	inactive
O=C(O)C(SSC(C(=O)O)(c1ccccc1)c1ccccc1)(c1ccccc1)c1ccccc1	> 200 µM	89.1 µM	–
Cc1ccc2scc3c4ccccc4nc-3c2c1	> 200 µM	0.479 µM	–
CCN(CC)CCNCc1cc(Cl)cc2c1OCOC2	> 200 µM	> 200 µM	–
Cc1ccccc1CN1C2=NCCN2C(=O)C2=C1CCN(S(=O)(=O)c1ccc(Cl)c(S(N)(=O)=O)c1)C2	> 200 µM	93.3 µM	–
CCC1(N=[N+]=[N-])C(=O)Nc2cc(C)ccc2C1=O (centres undefined)	> 200 µM	> 100 µM	–
NCCNCCCCCCCCCCCCOS(=O)(=O)O	> 112 µM	> 112 µM	–

SMILES	EC50	IC50	outcome
CN(C)c1ccc(/C=C/c2cc[n+]3cc(-c4ccccc4)sc3n2)cc1	> 1.51 µM	0.324 µM	–
CNc1ccc(C)cc1S(=O)(=O)c1ccc([N+](=O)[O-])cc1	> 200 µM	> 200 µM	–
O=C1OC2CCCC1O2 (centres undefined)	> 200 µM	> 200 µM	–
CN(C)C(=O)C(NCCO)c1ccccc1 (centres undefined)	> 200 µM	74.1 µM	–
C=CC1C2=C(C(=O)NCC2)C2OC(O)C3=C(CCNC3=O)C2C1C (centres undefined)	–	–	inactive
[N-]=[N+]=CC(=O)OC1Cc2ccccc2C1	182 µM	> 200 µM	–
O=C1/C(=C/c2cccc(Br)c2)CCc2ccccc21	> 200 µM	7.24 µM	–
CCC1(O)CCC2C3CC=C4CCCCC4C3CCC21C (centres undefined)	> 200 µM	30.9 µM	–
C/C=C(/I)CBr	> 955 µM	479 µM	–
COC1/C=C/OC2(C)Oc3c(C)c(OC(C)=O)c4c(c3C2=O)C(=O)C=C(NC(=O)/C(C)=C\C=C\C(C)C(O)C(C)C(O)C(C)C(OC(C)=O)C1C)C4=O (centres undefined)	> 200 µM	5.89 µM	–
CCOC(=O)c1nc2ccc(C(F)(F)F)cc2nc1NCc1ccc(Cl)c(Cl)c1	> 100 µM	17 µM	–
CC(=O)c1ccc2c(c1)N(CCCN(C)C)c1ccccc1S2	> 200 µM	34.7 µM	–
COc1cc(CC2c3cc(OC)c(OC)cc3CCN2C)c(C(=O)O)cc1OC (centres undefined)	–	–	inactive
O=C(O)c1cccc(P(=O)(O)O)c1	> 200 µM	> 200 µM	–
O=C1C=C[C@@]23C=Cc4ccccc4C2CC(O)C1C3 (some centres undefined)	> 245 µM	135 µM	–
COC(=O)C1(C(=O)OC)C2(CCCC2)C1(C(=O)OC)C(=O)OC	> 200 µM	> 200 µM	–
Cc1cc(N(CCC#N)CCC#N)ccc1/C=C(\N=[N+]=[N-])C(=O)NC(=O)COc1ccccc1	> 8.32 µM	> 8.32 µM	–
O=C1CC[C@H]2CO[C@H](c3ccccc3)N12	> 200 µM	> 200 µM	–
ClC(Cl)(Cl)C1CCOC1n1nnc2ccccc21 (centres undefined)	–	–	inactive
CSc1nc(C#N)c(/N=C\N(C)C)n1C	> 200 µM	> 200 µM	–
NC(=O)/C=C/c1c[nH]c2nccnc12	> 191 µM	0.977 µM	–
